Assay results reported in patent US20220257642A1, “METHODS AND COMPOSITIONS FOR GENERATING NITRIC OXIDE AND USES THEREOF TO DELIVER NITRIC OXIDE VIA THE RESPIRATORY TRACT” (THIRTY RESPIRATORY LIMITED, priority 2019, published 2022).

Legend:
[1] = tested on: SARS-CoV-2 clinical isolate; assay: SARS-CoV-2 virus yield reduction assay in Vero E6 cells; format: cell-based
Protocol: At time 0 hr, Vero E6 cells were infected with virus in presence of the formulation or controls and incubated for 1 hour. After this incubation period the inoculum was removed and the cells were washed. Fresh formulation or controls were then added to the washed cells. At 24 hours post infection, Vero E6 cell supernatants were harvested and titrated, and the virus titration was incubated for 6 days prior to readout to determine any virus yield reduction. Separate tests were performed at four MOIs including 3.0 and 0.3, although only those two MOIs were titrated. The readout was by crystal violet (cell monolayer) staining, followed by CPE scoring.

Structure (SMILES) | SARS-CoV-2 virus titre ([1]; FIG. 33, Run 1, MOI 3.0, 24 hours) | SARS-CoV-2 virus titre ([1]; FIG. 34, Run 2, MOI 3.0 and MOI 0.3, 48 hours) | Cytotoxicity on the LDH assay (Vero E6 cells) | In vitro antiviral action against SARS-CoV-2 ([1]; FIGS. 33 and 34)
CCN(CC)CCCC(C)Nc1ccnc2cc(Cl)ccc12 (stereo not shown) [chloroquine, Chloroquine phosphate] | limit of detection | limit of detection | – | –
O=C(O)CC(O)(CC(=O)O)C(=O)O [citric acid pH 5.8, citric acid] | – | – | low cytotoxicity | high in vitro antiviral action
